The results in this text go back to paper PMC2700083, “A covalent peptide inhibitor of RGS4 identified in a focused one-bead, one compound library screen” (BMC Pharmacology, 2009).

The inhibition is the drop in the measured response relative to a control, in per cent.

One test concerns the target T1, RGS4 A132C, -7C (Rattus norvegicus, UniProt P49799, C148A/C183A/C197A/C204A/C71A/C95A).
T1 construct: made in house
The test is described as follows: FCPIA, RGS4 A132C in the -7C. The format is binding. Particulars: read-out: 5nd logIC50 (converted). Here is the method: (§1) Figure 5 Dose curves of 5nd on various RGS4 cysteine mutants. Various concentrations of 5nd were tested for disruption of the RGS4-Gαo interaction for C95A (5 nM), or […], C71A (5nM) or C148A (5nM) (B), A95C in the -7C (5nM), or A132C in the -7C (5nM) (C), A71C in the -7C (5nM), or A148C in the -7C (5nM) (D) or the mutant with no cysteines in the domain (20 nM) or the C-terminus (20 nM) (E) in the FCPIA (mean ± S.E.M., n ≥ 3).
(§2) The previous experiments tested which cysteines are necessary for inhibition by 5nd. In an alternative approach, we added cysteines back to the -7C mutant to determine which might be sufficient for 5nd activity. […] Furthermore, Cys132 is involved in the actions but this is clearly not sufficient to explain them. Thus it is concluded that 5nd is at least partially non-selective in its cysteine modification.
(§3) Proteins were expressed, purified and labeled as described previously. The mutagenesis was done using the "QuickChange Multi Site-Directed Mutagenesis Kit" from Stratagene according to the manufacturer's protocol. The construct of RGS4 used in these studies is a maltose binding protein (MBP-) fusion protein of the RGS4 sequence from which the amphipathic N-terminal helix has been removed (i.e. MBP-RGS4Δ51N). For simplicity in the text, this will be referred to as RGS4. […]

For a further test, the target named is T2, RGS4 A71C, -7C (Rattus norvegicus, UniProt P49799, C132A/C148A/C183A/C197A/C204A/C95A).
T2 construct: made in house
T2 sequence (P49799 52-205 C95A/C132A/C148A/C183A/C197A/C204A): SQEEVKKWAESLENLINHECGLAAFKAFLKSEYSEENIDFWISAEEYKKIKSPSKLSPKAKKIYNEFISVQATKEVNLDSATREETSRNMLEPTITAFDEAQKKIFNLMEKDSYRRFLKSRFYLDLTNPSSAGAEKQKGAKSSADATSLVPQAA
Kind of test: FCPIA, RGS4 A71C in the -7C. It is filed as binding. Particulars: read-out: 5nd logIC50 (converted). The procedure: as §1, §2, §3

Another test deals with T3, RGS4 -7C (Rattus norvegicus, UniProt P49799, C132A/C148A/C183A/C197A/C204A/C71A/C95A).
T3 construct: made in house
T3 sequence (P49799 52-205 C71A/C95A/C132A/C148A/C183A/C197A/C204A): as the sequence (P49799 52-205 C95A/C132A/C148A/C183A/C197A/C204A) above, with C20A counted along it
Kind of test: FCPIA, RGS4 -7C mutant (all 7 cysteines removed). It is filed as binding. The note with it: read-out: 5nd logIC50 (converted). Here is the method:
Since 5nd forms an irreversible, DTT-sensitive bond with RGS, it was suspected that it binds covalently to a cysteine in the protein through a disulfide bridge. Indeed, removal of all 7 cysteines (termed the -7C mutant) from RGS4 greatly diminished 5nd activity (logIC50 of -3.24 ± 0.14 for -7C vs. -4.36 ± 0.02 for wild type) (Figure 5, Table 2).
as §1, §3

A further test concerns the target T4, RGS8 (Homo sapiens, UniProt P57771).
T4 construct: RGS8 full length; made in house
T4 sequence (P57771 1-180): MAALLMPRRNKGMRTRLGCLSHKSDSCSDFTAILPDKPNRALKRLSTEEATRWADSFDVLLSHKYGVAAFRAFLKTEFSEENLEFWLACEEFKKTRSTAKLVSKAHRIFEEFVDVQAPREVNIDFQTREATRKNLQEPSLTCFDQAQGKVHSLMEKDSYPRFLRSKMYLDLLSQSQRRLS
Kind of test: FCPIA, Gαo binding to RGS8. The procedure: We recently described a bead-based screen in which 2.5 × 10^6 different peptide sequences were prepared as a OBOC library. Fluorescently labeled RGS4 was used to probe the library for peptides that bind RGS4 [5]. […] Since the majority of those hit peptides could bind tightly to the RGS without disrupting GAP activity, they were also tested in the flow cytometry protein interaction assay (FCPIA) (Figure 1), which measures the interaction between RGS4 and Gαo. In this method we used a Luminex flow cytometer to detect the binding of Alexa Fluor 532-labeled Gαo to biotinylated RGS4 on avidin beads in the presence of AMF (AlCl3, MgCl2, NaF and GDP) to put the Gα subunit into a transition state-like conformation. Peptides were tested at 50 μM except where limited by solubility (Table 1).
5nd inhibited Gαo binding to a number of different RGS proteins (Figure 2). […] RGS19 and RGS7 are in the RZ and R7 families, respectively and show less inhibition by 5nd. Linear as well as bridged versions of peptide 5 were tested in the FCPIA since cyclization yields would most likely have been less then 100% in the synthesis of the library leaving some linear peptides present on each bead. […] This may be due to lack of structural rigidity necessary for the correct interaction of the peptide with the RGS protein or a role for chemical reactivity of the disulfide.
Figure 2 Characterization of hit 5. A) and B) Dose response curves for 5nd in the FCPIA with different RGS proteins (RGS Family), (mean ± S.E.M., n = 3) *p < 0.05, **p < 0.01, ***p < 0.001 compared to RGS4 at the same 5nd concentration. C) Peptides were tested at 50 μM as in Figure 1, (mean ± S.E.M., n ≥ 3) *p < 0.05, **p < 0.01, ***p < 0.001 compared to no peptide.
Figure 3 Irreversibility experiments. RGS-biotin on avidin beads was treated with 5nd (100 μM) or 5nm (100 μM) and then washed in buffer (with or without 1 mM DTT) or not washed and put in the FCPIA using RGS4 (A) or RGS8 (B) (mean ± S.E.M., n ≥ 2) *p < 0.05, **p < 0.01, ***p < 0.001 compared to no peptide (100%); #p < 0.05, ##p < 0.01, ###p < 0.001 compared to 5nd no wash.
as §3, with “RGS4. All other RGS proteins were human sequences and were used as Mpb fusions: RGS7 RGS domain (aa: 305–453), RGS8 full length, RGS16 full length, and RGS19ΔC11 (amino acids 1–209).” for “RGS4.”

The target of another test is T5, RGS4 C148A (Rattus norvegicus, UniProt P49799, C148A).
T5 construct: made in house
T5 sequence (P49799 52-205 C148A limits assumed): as the sequence (P49799 52-205 C95A/C132A/C148A/C183A/C197A/C204A) above, with A44C, A81C, A132C, A146C, A153C counted along it
Kind of test: FCPIA, RGS4 cysteine mutant C148A. Particulars: read-out: 5nd logIC50 (converted). The format is binding. The procedure: as §1
Proteins were expressed, purified and labeled as described previously. The mutagenesis was done using the "QuickChange Multi Site-Directed Mutagenesis Kit" from Stratagene according to the manufacturer's protocol. The construct of RGS4 used in these studies is a maltose binding protein (MBP-) fusion protein of the RGS4 sequence from which the amphipathic N-terminal helix has been removed (i.e. MBP-RGS4Δ51N). For simplicity in the text, this will be referred to as RGS4. All other RGS proteins were human sequences and were used as Mpb fusions: RGS7 RGS domain (aa: 305–453), RGS8 full length, RGS16 full length, and RGS19ΔC11 (amino acids 1–209). To cleave RGS4Δ51N from the MBP-His6 construct for MS analysis, MBP-His6-RGS4Δ51N was treated with 15% MBP-His6-TEV protease S219V [11] for 22 hours at 4°C and purified over a Ni-NTA column.
FCPIA was performed as previously published.

Like-named read-outs stand apart in the source and are kept apart here. Where a SMILES comes first, the peptide text is derived from it. Bridges are numbered along the chain shown (N, C = ends).

T1 sequence (P49799 52-205 C71A/C95A/C148A/C183A/C197A/C204A): as the sequence (P49799 52-205 C95A/C132A/C148A/C183A/C197A/C204A) above, with C20A, A81C counted along it

Consider `CC(C)C[C@@H]1NC(=O)CNC(=O)[C@H](CCCCN)NC(=O)[C@@H](NC(=O)[C@H](Cc2c[nH]c3ccccc23)NC(=O)[C@@H](N)Cc2ccc(O)cc2)CSSC[C@@H](C(=O)N[C@@H](CCCCN)C(N)=O)NC1=O` [Peptide 5nd, Tyr-Trp-c [Cys-Lys-Gly-Leu-Cys]-Lys-NH2, S-S] (H-YWCKGLCK-NH2; disulfide 3-7), for which the IC50 on RGS4 A132C, -7C was 389 µM; at RGS4 A71C, -7C, 631 µM; on RGS4 -7C it was 575 µM; on RGS4 C148A, 53.7 µM. The inhibition at 100 µM at RGS8 (beads washed in buffer with 1 mM DTT, read-out: percent inhibition, RGS8, DTT wash) amounted to 10 ± 3%; at RGS8 (beads washed in buffer without DTT, read-out: percent inhibition, RGS8, wash), 50 ± 3%; at RGS8 (no wash, read-out: percent inhibition, RGS8), 64 ± 2%.
